Activity calls are given as the source filed them. The rule behind the calls is not given here.
Legend:
[1] = Toxicity in mouse assessed as brownish watery stool at 150 mg/kg; format: organism-based; settings: in vivo
[2] = target: RAC-alpha serine/threonine-protein kinase (Homo sapiens, UniProt P31749); assay: Inhibition of N-terminal GST-tagged human AKT1 (104 to 408 residues) expressed in baculovirus infected Sf21 cells incubated for 1 hr in presence of ATP by mobility shift assay
786-0 = assay: Antiproliferative activity against human 786-0 cells assessed as inhibition of cell growth incubated for 72 hrs by SRB assay; format: functional, cell-based; settings: 786-0, 72 h
KHOS/NP [3] = assay: Antiproliferative activity against human KHOS cells assessed as inhibition of cell growth incubated for 72 hrs by SRB assay; format: functional, cell-based
hERG (KCNH2) = hERG (KCNH2) (Homo sapiens, UniProt Q12809); assay: Inhibition of human ERG expressed in HEK293 cells at 3 uM by whole cell patch clamp method relative to control; format: cell-based; settings: HEK293 cells expressing hERG
Sequence of hERG (KCNH2) (Q12809 whole entry): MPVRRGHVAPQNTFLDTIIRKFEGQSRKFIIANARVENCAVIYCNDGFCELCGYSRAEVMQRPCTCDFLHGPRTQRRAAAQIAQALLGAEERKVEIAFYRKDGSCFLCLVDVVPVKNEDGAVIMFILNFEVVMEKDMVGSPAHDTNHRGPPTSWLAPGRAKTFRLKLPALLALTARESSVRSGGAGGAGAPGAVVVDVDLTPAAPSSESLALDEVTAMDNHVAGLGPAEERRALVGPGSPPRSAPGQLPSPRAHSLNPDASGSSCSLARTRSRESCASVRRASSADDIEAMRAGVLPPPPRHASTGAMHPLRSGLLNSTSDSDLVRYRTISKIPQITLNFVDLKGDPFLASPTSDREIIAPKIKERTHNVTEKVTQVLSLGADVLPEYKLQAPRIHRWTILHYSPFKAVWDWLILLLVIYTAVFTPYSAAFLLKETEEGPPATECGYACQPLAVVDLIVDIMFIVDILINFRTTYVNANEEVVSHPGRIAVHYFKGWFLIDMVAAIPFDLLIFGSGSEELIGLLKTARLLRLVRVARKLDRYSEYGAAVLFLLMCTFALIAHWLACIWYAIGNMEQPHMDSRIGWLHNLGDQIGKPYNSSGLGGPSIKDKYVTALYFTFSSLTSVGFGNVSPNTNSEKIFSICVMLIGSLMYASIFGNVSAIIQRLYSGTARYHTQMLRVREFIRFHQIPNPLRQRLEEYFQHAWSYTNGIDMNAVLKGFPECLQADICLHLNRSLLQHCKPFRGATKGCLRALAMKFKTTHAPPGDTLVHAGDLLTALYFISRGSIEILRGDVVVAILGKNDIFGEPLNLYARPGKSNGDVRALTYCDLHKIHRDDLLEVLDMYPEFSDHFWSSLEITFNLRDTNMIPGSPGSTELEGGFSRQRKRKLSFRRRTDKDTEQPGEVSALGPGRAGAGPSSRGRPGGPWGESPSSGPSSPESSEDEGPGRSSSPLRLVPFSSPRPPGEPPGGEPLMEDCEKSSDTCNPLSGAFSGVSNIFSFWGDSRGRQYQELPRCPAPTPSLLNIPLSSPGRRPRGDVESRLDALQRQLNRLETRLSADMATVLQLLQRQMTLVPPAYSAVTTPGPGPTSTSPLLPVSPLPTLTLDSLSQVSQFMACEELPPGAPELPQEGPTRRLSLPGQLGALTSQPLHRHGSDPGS

[4] = target: cGMP-dependent protein kinase 2 (Homo sapiens) (UniProt Q13237); assay: Inhibition of PRKG2 (unknown origin) at 0.5 uM
[5] = target: Ribosomal protein S6 kinase beta-1 (Homo sapiens, UniProt P23443); assay: Inhibition of P70S6K (unknown origin)
Sequence of Ribosomal protein S6 kinase beta-1 (P23443 whole entry): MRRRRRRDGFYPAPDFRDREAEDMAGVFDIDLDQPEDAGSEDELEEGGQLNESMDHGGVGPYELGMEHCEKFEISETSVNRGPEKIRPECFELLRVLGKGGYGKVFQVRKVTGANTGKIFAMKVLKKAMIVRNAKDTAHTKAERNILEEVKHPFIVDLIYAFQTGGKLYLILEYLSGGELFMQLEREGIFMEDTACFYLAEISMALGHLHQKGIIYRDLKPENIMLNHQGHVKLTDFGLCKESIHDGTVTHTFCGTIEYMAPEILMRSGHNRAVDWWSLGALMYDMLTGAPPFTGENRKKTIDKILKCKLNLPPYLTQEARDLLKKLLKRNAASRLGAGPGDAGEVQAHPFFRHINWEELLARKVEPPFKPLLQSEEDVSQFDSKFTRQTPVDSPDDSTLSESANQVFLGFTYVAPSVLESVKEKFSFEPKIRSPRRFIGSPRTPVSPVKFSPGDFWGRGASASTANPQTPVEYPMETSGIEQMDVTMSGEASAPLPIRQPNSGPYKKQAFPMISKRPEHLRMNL

[6] = target: Ribosomal protein S6 kinase alpha-5 (Homo sapiens, UniProt O75582); assay: Inhibition of MSK1 (unknown origin)
Sequence of Ribosomal protein S6 kinase alpha-5 (O75582 whole entry): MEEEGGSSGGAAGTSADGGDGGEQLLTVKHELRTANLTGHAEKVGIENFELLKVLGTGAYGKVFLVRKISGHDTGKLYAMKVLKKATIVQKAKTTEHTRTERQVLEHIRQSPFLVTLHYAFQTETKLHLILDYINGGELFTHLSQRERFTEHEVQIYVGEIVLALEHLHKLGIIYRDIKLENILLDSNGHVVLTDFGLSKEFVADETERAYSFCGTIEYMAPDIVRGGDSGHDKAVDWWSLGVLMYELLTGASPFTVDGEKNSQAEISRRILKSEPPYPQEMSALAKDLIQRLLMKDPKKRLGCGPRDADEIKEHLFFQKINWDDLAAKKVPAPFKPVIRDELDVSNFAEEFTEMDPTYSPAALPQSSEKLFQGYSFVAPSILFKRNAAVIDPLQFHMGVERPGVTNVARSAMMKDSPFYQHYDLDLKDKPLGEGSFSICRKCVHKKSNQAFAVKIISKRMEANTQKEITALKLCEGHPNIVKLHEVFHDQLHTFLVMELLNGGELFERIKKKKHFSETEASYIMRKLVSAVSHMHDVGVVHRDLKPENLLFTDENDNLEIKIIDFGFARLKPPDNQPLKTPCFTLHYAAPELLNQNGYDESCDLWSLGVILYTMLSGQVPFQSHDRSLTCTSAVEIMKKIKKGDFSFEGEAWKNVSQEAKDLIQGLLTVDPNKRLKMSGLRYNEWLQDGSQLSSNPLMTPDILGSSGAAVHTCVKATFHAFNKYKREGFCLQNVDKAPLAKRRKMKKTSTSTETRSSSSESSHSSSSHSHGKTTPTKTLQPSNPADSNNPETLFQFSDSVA

[7] = target: Testis-specific serine/threonine-protein kinase 1 (Homo sapiens, UniProt Q9BXA7); assay: Inhibition of TSSK1 (unknown origin)
Sequence of Testis-specific serine/threonine-protein kinase 1 (Q9BXA7 whole entry): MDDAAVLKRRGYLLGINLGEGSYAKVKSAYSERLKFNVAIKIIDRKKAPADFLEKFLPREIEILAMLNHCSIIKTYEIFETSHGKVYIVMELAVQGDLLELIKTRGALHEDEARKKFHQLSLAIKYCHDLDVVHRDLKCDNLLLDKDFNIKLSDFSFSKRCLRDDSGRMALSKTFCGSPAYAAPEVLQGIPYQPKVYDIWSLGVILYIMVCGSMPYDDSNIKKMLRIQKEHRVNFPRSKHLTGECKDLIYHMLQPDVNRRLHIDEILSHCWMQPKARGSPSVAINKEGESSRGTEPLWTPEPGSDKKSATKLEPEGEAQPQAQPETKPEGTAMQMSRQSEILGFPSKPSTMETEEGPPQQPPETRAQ

[8] = target: Cyclin-dependent kinase 2 (Homo sapiens, UniProt P24941); assay: Inhibition of CDK2 (unknown origin)
[9] = target: Tyrosine-protein kinase JAK2 (Homo sapiens, UniProt O60674); assay: Inhibition of JAK2 (unknown origin)
NCI-H1975 = assay: Antiproliferative activity against human NCI-H1975 cells assessed as inhibition of cell growth incubated for 72 hrs by SRB method; format: functional, cell-based; settings: NCI-H1975, 72 h
SMMC-7721 = assay: Antiproliferative activity against human SMMC-7721 cells assessed as inhibition of cell growth incubated for 72 hrs by SRB method; format: functional, cell-based; settings: SMMC-7721, 72 h
769-P = assay: Antiproliferative activity against human 769-P cells assessed as inhibition of cell growth incubated for 72 hrs by SRB method; format: functional, cell-based
Cytochrome P450 2C9 = Cytochrome P450 2C9 (Homo sapiens, UniProt P11712); assay: Inhibition of CYP2C9 (unknown origin); format: ADME
Sequence of Cytochrome P450 2C9 (P11712 whole entry): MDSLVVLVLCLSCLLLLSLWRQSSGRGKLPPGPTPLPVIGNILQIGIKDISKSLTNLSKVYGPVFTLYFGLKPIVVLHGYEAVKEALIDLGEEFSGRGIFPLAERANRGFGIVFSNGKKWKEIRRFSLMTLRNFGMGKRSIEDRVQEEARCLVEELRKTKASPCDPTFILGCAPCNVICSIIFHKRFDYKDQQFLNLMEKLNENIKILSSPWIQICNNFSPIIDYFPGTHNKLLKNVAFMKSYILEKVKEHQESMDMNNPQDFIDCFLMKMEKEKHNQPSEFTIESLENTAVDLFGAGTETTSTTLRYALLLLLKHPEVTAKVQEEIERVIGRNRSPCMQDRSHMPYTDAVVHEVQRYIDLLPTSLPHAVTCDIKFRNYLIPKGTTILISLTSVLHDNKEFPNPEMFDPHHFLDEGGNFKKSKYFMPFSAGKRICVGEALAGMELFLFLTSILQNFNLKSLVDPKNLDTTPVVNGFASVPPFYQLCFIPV

Cytochrome P450 2D6 = Cytochrome P450 2D6 (Homo sapiens, UniProt P10635); assay: Inhibition of CYP2D6 (unknown origin); format: ADME
Sequence of Cytochrome P450 2D6 (P10635 whole entry): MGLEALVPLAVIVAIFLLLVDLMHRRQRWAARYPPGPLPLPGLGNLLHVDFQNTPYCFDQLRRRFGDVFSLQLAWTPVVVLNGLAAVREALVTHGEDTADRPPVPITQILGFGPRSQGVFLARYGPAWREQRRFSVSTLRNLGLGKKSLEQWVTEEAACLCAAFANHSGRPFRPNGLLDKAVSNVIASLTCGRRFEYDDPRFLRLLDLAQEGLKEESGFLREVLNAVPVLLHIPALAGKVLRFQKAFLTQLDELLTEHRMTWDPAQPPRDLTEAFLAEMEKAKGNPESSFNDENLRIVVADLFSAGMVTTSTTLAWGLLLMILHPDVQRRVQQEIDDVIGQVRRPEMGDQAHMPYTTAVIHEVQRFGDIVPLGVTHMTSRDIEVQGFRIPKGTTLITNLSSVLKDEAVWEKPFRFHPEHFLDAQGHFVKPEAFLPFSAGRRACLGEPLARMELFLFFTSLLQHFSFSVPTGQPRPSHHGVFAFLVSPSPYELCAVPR

Cytochrome P450 3A4 = Cytochrome P450 3A4 (Homo sapiens, UniProt P08684); assay: Inhibition of CYP3A4 (unknown origin); format: ADME
Sequence of Cytochrome P450 3A4 (P08684 whole entry): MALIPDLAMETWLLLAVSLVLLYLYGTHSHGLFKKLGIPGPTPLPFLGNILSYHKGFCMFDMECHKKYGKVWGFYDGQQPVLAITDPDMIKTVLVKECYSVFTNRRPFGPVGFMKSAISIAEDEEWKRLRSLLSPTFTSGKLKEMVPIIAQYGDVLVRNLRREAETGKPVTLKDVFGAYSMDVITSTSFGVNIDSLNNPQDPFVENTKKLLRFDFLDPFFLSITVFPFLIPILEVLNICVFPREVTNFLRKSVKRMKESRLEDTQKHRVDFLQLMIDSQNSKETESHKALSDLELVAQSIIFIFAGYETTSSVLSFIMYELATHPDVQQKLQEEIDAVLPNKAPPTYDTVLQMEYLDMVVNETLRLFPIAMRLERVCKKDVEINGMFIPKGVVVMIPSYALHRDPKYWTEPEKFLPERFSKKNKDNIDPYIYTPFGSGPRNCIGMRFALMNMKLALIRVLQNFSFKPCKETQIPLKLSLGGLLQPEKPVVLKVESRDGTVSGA

Cytochrome P450 3A5 = Cytochrome P450 3A5 (Homo sapiens, UniProt P20815); assay: Inhibition of CYP3A5 (unknown origin); format: ADME
[10] = Microsomal stability in dog liver microsomes assessed as half life at 50 uM preincubated for 5 mins with NADPH followed by compound addition and measured upto 60 mins by LC-MS/MS analysis; format: ADME, Canis lupus familiaris, Microsome
[11] = Microsomal stability in rat liver microsomes assessed as half life at 50 uM preincubated for 5 mins with NADPH followed by compound addition and measured upto 60 mins by LC-MS/MS analysis; format: ADME, Microsome
[12] = Microsomal stability in mouse liver microsomes assessed as intrinsic clearance at 50 uM preincubated for 5 mins with NADPH followed by compound addition and measured upto 60 mins by LC-MS/MS analysis; format: ADME, Microsome; settings: read-out: CLH
[13] = Tmax in Sprague-Dawley rat at 2 mg/kg, iv measured upto 24 hrs by LC-MS/MS analysis; format: ADME, organism-based; settings: in vivo
[14] = Tmax in Beagle dog at 20 mg/kg, ig measured upto 96 hrs by LC-MS/MS analysis; format: ADME, organism-based, Canis lupus familiaris; settings: in vivo, po
[15] = Half life in Sprague-Dawley rat at 2 mg/kg, iv measured upto 24 hrs by LC-MS/MS analysis; format: ADME, organism-based; settings: in vivo
[16] = Half life in Beagle dog at 20 mg/kg, ig measured upto 96 hrs by LC-MS/MS analysis; format: ADME, organism-based, Canis lupus familiaris; settings: in vivo, po
[17] = AUC(0 to infinity) in Sprague-Dawley rat at 2 mg/kg, iv measured upto 24 hrs by LC-MS/MS analysis; format: ADME, organism-based; design: route intravenous, dose 2 mg/kg, time <=24; settings: in vivo
[18] = Drug metabolism in po dosed Sprague-Dawley rat urine assessed as M2 metabolite formation measured upto 72 hrs by UPLC-TOF-MS/MS analysis; format: ADME, organism-based; settings: in vivo
[19] = Drug metabolism in po dosed Sprague-Dawley rat feces assessed as M5 metabolite formation measured upto 24 hrs by UPLC-TOF-MS/MS analysis; format: ADME, organism-based; settings: in vivo
[20] = Drug metabolism in po dosed Sprague-Dawley rat blood assessed as M1 metabolite formation measured upto 6 hrs by UPLC-TOF-MS/MS analysis; format: ADME, organism-based; settings: in vivo
[21] = Toxicity in mouse assessed as weight loss at 150 mg/kg; format: organism-based; settings: in vivo
[22] = Toxicity in Sprague-Dawley rat assessed as appearance of scab on back skin at 25 to 75 mg/kg administered daily for 4 weeks; format: organism-based; settings: in vivo, 672 h, dose 25-75 mg/kg
[23] = Toxicity in Sprague-Dawley rat assessed as change in cell population at 25 to 75 mg/kg administered daily for 4 weeks; format: organism-based; settings: in vivo, 672 h, dose 25-75 mg/kg
[24] = Toxicity in Sprague-Dawley rat assessed as effect on spleen at 25 to 75 mg/kg administered daily for 4 weeks by histopathological analysis; format: organism-based; settings: in vivo, 672 h, dose 25-75 mg/kg
[25] = Toxicity in Sprague-Dawley rat assessed as effect on thymus at 25 to 75 mg/kg administered daily for 4 weeks by histopathological analysis; format: organism-based; settings: in vivo, 672 h, dose 25-75 mg/kg
[26] = Toxicity in Sprague-Dawley rat assessed as effect on uterus at 25 to 75 mg/kg administered daily for 4 weeks by histopathological analysis; format: organism-based; settings: in vivo, 672 h, dose 25-75 mg/kg
[27] = Toxicity in Sprague-Dawley rat assessed as effect on thyroid at 25 to 75 mg/kg administered daily for 4 weeks by histopathological analysis; format: organism-based; settings: in vivo, 672 h, dose 25-75 mg/kg
KHOS/NP [28] = assay: Antitumor activity against human KHOS cells xenografted in ig dosed BALB/c nude mouse assessed as tumor growth inhibition administered once daily for 22 days; format: functional, organism-based; settings: dose 12.5-50 mg/kg, time 22.0 day
[29] = Toxicity in BALB/c nude mouse xenografted with human KHOS cells assessed as change in body weight at 12.5 to 50 mg/kg, ig administered once daily for 22 days; format: organism-based; settings: in vivo, po, 528 h, dose 12.5-50 mg/kg, time 22 day

Sequence of RAC-alpha serine/threonine-protein kinase (P31749 whole entry, the tested form may be a part): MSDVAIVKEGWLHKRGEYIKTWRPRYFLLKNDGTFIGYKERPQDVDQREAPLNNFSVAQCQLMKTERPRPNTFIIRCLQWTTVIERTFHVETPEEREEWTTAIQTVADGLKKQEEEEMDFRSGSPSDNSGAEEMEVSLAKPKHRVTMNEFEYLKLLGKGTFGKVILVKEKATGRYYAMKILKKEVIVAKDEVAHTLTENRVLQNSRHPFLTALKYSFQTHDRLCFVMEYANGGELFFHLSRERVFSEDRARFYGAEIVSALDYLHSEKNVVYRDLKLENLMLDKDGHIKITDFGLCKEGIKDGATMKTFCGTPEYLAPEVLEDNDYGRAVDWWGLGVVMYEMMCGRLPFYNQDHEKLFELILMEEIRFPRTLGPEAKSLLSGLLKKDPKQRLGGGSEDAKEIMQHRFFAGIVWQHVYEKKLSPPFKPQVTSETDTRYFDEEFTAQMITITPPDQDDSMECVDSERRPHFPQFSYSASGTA

With `Cl.Cn1nccc1-c1ccc(C(=O)N[C@@H]2CNCC[C@H]2c2ccc(F)c(F)c2)c(F)c1` the Activity [1] was “Toxic”, the IC50 [2] was 0.004 µM and the IC50 (786-0) was 2.5 µM. For the same compound, the IC50 (KHOS/NP [3]) was 14.9 µM, the inhibition at 3 µM (hERG (KCNH2)) was 15.9% and the inhibition [4] was “Active”. The IC50 [5] was 0.229 µM, the IC50 [6] was greater than 10 µM and the IC50 [7] was greater than 10 µM. It also gave an IC50 [8] greater than 10 µM, an IC50 [9] greater than 10 µM and an IC50 (NCI-H1975) of 7.56 µM. It also gave an IC50 (SMMC-7721) of 19.8 µM, an IC50 (769-P) of 7.76 µM and an IC50 (Cytochrome P450 2C9) greater than 100 µM. For the same compound, the IC50 (Cytochrome P450 2D6) was greater than 100 µM, the IC50 (Cytochrome P450 3A4) was greater than 100 µM and the IC50 (Cytochrome P450 3A5) was greater than 100 µM. The half-life at 50 µM [10] was 5.6 h, the half-life at 50 µM [11] was 1.16 h and the microsomal CLint at 50 µM [12] was 3.4 µL/min/mg. For the same compound, the Tmax [13] was 6.6 min, the Tmax [14] was 8.67 h and the half-life [15] was 6.24 h. For the same compound, the half-life [16] was 16.7 h, the AUC(0-inf) [17] was 533 ng·h/mL and the Drug metabolism [18] was “Metabolite_Detected”. The Drug metabolism [19] was “Metabolite_Detected”, the Drug metabolism [20] was “Metabolite_Detected” and the Activity [21] was “Toxic”. For the same compound, the Activity [22] was “Non-Toxic”, the Activity [23] was “Non-Toxic” and the Activity [24] was “Non-Toxic”. For the same compound, the Activity [25] was “Non-Toxic”, the Activity [26] was “Non-Toxic” and the Activity [27] was “Non-Toxic”. The Activity (KHOS/NP [28]) was “Dose-Dependent Effect” and the Activity [29] was “Non-Toxic”.
